From paper PMC5059851, “Inhibition of Hedgehog-dependent tumors and cancer stem cells by a newly identified naturally occurring chemotype” (Cell Death & Disease, 2016)
pIC50: −log10 of the molar value. “Also recorded” adds a separate entry of the source.

Experiments:
[1] = system: Hh pathway (Gli-responsive firefly luciferase reporter); test: Hh-dependent Gli-luciferase reporter assay in SAG-treated NIH3T3 Shh-Light II cells; type: cell-based; conditions: SAG (200 nM)-treated NIH3T3 Shh-Light II cells, 48 h, normalized to Renilla; N.A. = Not Active
Protocol: The inhibitory properties of the potential Smo antagonists 1–17 were investigated in a luciferase reporter assay that is widely used for characterizing Hh inhibitors. NIH3T3 Shh-Light II cells, stably incorporating a Gli-responsive firefly luciferase reporter (Gli-RE),[25] were treated with the synthetic Smo agonist SAG[24] alone or in combination with the selected small molecules to evaluate their dose–response ability to suppress Hh pathway. […] We excluded the possibility that inhibition activity in this assay was mediated by cytotoxicity because no decrease was shown in the luciferase assay control Renilla as observed instead for 13–17.
The luciferase assay was performed in Shh-Light II cells, stably incorporating a Gli-responsive luciferase reporter and the pRL-TK Renilla (normalization control), treated for 48 h with SAG (200 nM) and the studied compounds. Luciferase and Renilla activity were assayed with a dual-luciferase assay system according to the manufacturer's instruction (Biotium Inc., Hayward, CA, USA). Results are expressed as luciferase/Renilla ratios and represent the mean±S.D. of three experiments, each performed in triplicate.

[2] = system: cerebellar granule cell progenitors (GCPs); test: BrdU proliferation assay in SAG-treated cerebellar granule cell progenitors; type: cell-based, mouse; conditions: SAG + compound at 5 and 10 μM, 48 h
From the text: Hh signaling is a critical regulator of cerebellum development controlling the proliferation of granule cell progenitors (GCPs) under Purkinje cell-derived Shh stimuli. Withdrawal of Hh signal, occurring physiologically after the first post-natal week in mice,[54] causes cell growth arrest and induces their differentiation into mature granules.[55] Importantly, genetic and epigenetic alterations in the Hh pathway are responsible for the lack of GCPs proliferation arrest, leading to the tumorigenic conversion of these progenitors, considered as the cell of origin of MB.[56], [57] To investigate the biological effects of 12, we first tested its ability to suppress Hh-dependent growth in 4-day-old mouse cerebellar progenitors.
Figure 4 Compound 12 inhibition of Hh-dependent growth of cerebellum granule cell progenitors. […] (a) Inhibition of cell proliferation was measured as percentage of BrdU incorporation in comparison with SAG-treated sample. […] (c) qRT-PCR analysis show Hh and proliferation targets mRNA expression levels determined in GCPs culture derived from 4-day-old mouse cerebella treated with SAG alone or in combination with compound 12 at 5 and 10 μM concentrations for 48 h. […]
Cell proliferation was evaluated by BrdU detection (Roche, Welwyn Garden City, UK). […] At least 500 nuclei were counted in triplicate, and the number of BrdU-positive nuclei was recorded. […]

AP1/Jun pathway = test: AP1/Jun luciferase reporter assay (MMP1-luciferase reporter and c-Jun) in MEFs WT; type: cell-based, mouse; conditions: increasing concentrations, 24 h
Protocol: (§1) Figure 2 Compound 12 inhibits Hh signaling without affecting AP1/Jun and WNT/β-Catenin pathways. (a) The graphs show the Hh target genes expression levels in Ptch1^−/− MEFs treated for 48 h with 12 or DMSO as control. mRNA levels were determined by quantitative real-time PCR (qRT-PCR) normalized to endogenous control (β2-microglobulin and HPRT). Pfkfb3 gene was used as negative control. *P<0.05 versus CTR. (b and c) AP1/Jun and WNT/β-Catenin pathways activity were assayed in MEFs WT transfected with MMP1-luciferase reporter and c-Jun (b) or Top Flash-luciferase reporter and β-Catenin (c), respectively, in the presence or absence of increasing concentrations of compound 12. Treatment time was 24 h, and normalization was against Renilla luciferase.

murine Smo D477G = biological target: T1, murine Smo D477G (Mus musculus, UniProt P56726, D477G); test: Bodipy-Cyclopamine (BC) binding assay, HEK293T cells transfected with mouse Smo D477G
T1 construct: Flag; expressed in transfected cells; host or cells: HEK293T
T1 sequence (P56726 33-793 D477G): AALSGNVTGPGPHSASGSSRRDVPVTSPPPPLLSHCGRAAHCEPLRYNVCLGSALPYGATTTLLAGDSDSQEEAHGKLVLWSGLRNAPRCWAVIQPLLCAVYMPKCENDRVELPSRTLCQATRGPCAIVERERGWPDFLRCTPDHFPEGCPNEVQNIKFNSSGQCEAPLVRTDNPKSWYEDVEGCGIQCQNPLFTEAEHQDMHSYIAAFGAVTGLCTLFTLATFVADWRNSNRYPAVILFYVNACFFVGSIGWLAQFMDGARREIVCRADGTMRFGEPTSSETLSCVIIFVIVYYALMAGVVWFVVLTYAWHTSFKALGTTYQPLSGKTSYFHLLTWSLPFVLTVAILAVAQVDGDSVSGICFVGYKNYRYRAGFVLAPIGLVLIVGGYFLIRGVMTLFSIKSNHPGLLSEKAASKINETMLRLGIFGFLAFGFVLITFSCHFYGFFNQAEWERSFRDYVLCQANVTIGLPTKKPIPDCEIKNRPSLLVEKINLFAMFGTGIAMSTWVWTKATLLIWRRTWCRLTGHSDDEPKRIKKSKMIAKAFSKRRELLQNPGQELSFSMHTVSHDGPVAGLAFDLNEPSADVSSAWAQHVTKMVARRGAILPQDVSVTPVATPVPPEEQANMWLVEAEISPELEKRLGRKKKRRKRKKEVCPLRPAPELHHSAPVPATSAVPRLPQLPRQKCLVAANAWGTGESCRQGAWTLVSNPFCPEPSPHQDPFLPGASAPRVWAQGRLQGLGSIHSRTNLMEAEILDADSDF
Protocol: Cells were washed in PBS supplemented with 0.5% fetal bovine serum, fixed in 4% paraformaldehyde in phosphate-buffered saline (PBS) for 10 min, and incubated for 2 h at 37 °C both in the same medium supplemented with Bodipy-Cyclopamine (5 nM) and the studied compounds. The cells were permeabilized with Triton X100 (Sigma) 0.2%. Dako Fluorescent mounting (Dako, Carpinteria, CA, USA) was used as mounting medium and Hoechst reagent for staining of the cell nuclei. Bodipy (green) and Hoechst (blue) signals were analyzed in three to four representative fields per coverslip (× 20 magnification, 1000 cells/field). Data were expressed as percentage of BC incorporation observed with BC alone.[95]
BC binding (green) is visualized using fluorescence microscopy in a representative field (a). […] Quantitative data are the average BC intensity from five independent fluorescence microscopy images.

WNT/β-Catenin pathway = test: WNT/β-Catenin luciferase reporter assay (Top Flash-luciferase and β-Catenin) in MEFs WT; type: cell-based, mouse; conditions: increasing concentrations, 24 h
Protocol: as §1

pIC50 (murine Smo D477G; BC (5 nM) displacement, transiently transfected 293T cells): 4.25
inhibition of BC binding to mouse Smo D477G mutant (murine Smo D477G; HEK293T cells, various concentrations): significantly inhibited BC binding
Fold shift murine Smo (murine Smo D477G; IC50 Smo D477G / IC50 Smo WT): 1.243
SMILES: COc1ccc(C=CC(=O)c2cc(OC)c(OC)cc2OC)cc1OC [Compound 12, 3-(3,4-dimethoxy-phenyl)-1-(2,4,5-trimethoxy-phenyl)-2-propen-1-one]
pIC50 [1]: 5.35
BrdU uptake / proliferation rate of GCPs [2]: reduced significantly
luciferase activity driven by Jun/AP1 signaling (AP1/Jun pathway): without affecting luciferase activity; also recorded: inactive
luciferase activity driven by Wnt/β-catenin signaling (WNT/β-Catenin pathway): without affecting luciferase activity; also recorded: inactive
